47 compounds from publication PMC10222270, “Natural Product-Based Screening for Lead Compounds Targeting SARS CoV-2 M^pro” (Pharmaceuticals, 2023) can be followed below.

“And” between values parts separate entries of the source, which are not always exact repeats. Equal entries are not always repeated. Where two headings read alike, the source gives them in different places.

The target of the experiment is T1, SARS CoV-2 M^pro (Severe acute respiratory syndrome coronavirus 2, UniProt P0DTD1).
T1 construct: The main protease (M^pro) is a part of the polyprotein chain, also named 3C-like protease; SUMO (cleaved yes); His; made in house; host or cells: Escherichia coli BL21(DE3)
Description: biochemical. In kind it is biochemical. The note with it: for inhibition at 80 µM: read-out: Inhibition%(80μM).

With `O=c1oc2c(O)cc(O)cc2c2oc3cc(O)c(O)cc3c12` [Isodemethylwedelolacton], the “Inhibition%(80μM)” value was 99.38% and 99.79%; the inhibition at 80 µM came out at 99.7%.
Take `OC[C@]1(O)COc2cc(O)ccc2-c2cc(O)c(O)cc2C1` [(7S)-3,7,10,11-Tetrahydroxy-7,8-dihydro-6H-dibenzo[b,d]oxocin-7-methanol]: the “Inhibition%(80μM)” value is 101.15% and 101.14% and 101.45%.
For the compound `Cc1cc(=O)oc2cc(O)c(O)cc12` [4-Methylesculetin], the “Inhibition%(80μM)” value is 77.57% and the inhibition at 80 µM is 79.1%. Moreover, the inhibition at 80 µM (80 μM compound, second value column of Table S2) amounted to 79.9%.
Echinacoside: the “Inhibition%(80μM)” value is 93.62% and 90.06% and 89.84%.
In the case of `C[C@@H]1O[C@@H](OC[C@H]2O[C@@H](OCCc3ccc(O)c(O)c3)[C@H](O)[C@@H](O)[C@@H]2O)[C@H](O)[C@H](O)[C@H]1O` [Forsythoside E], the “Inhibition%(80μM)” value was 102.62% and 100.37%; the inhibition at 80 µM stood at 103%.
As to `CCCCCCCCCCCC1=C(O)C(=O)C=C(O)C1=O` [Embelin], the “Inhibition%(80μM)” value is 89.75% and 99.35%; the inhibition at 80 µM turned out to be 103%.
As for `C[C@@H]1O[C@@H](OC[C@H]2O[C@@H](OCCc3ccc(O)c(O)c3)[C@H](O)[C@@H](OC(=O)/C=C/c3ccc(O)c(O)c3)[C@@H]2O)[C@H](O)[C@H](O)[C@H]1O` [Isoforsythiaside], the “Inhibition%(80μM)” value is 100.44% and 101.30%; the inhibition at 80 µM turned out to be 100%.
Regarding `O=C(/C=C/c1ccc(O)c(O)c1)O[C@@H]1C[C@@](OC(=O)/C=C/c2ccc(O)c(O)c2)(C(=O)O)C[C@@H](O)[C@@H]1O` [1,5-Dicaffeoylquinic Acid], the “Inhibition%(80μM)” value is 75.61% and 71.24%; the inhibition at 80 µM was 74.6%.
For `CCCCCCCC/C=C\CCCCCCCCCCCCCC(=O)O` [Nervonic Acid], the “Inhibition%(80μM)” value is 89.75% and 93.14%; the inhibition at 80 µM amounted to 93.6%.
Turning to `O=C(OC[C@H]1O[C@@H](OC(=O)c2cc(O)c(O)c(OC(=O)c3cc(O)c(O)c(O)c3)c2)[C@H](OC(=O)c2cc(O)c(O)c(OC(=O)c3cc(O)c(O)c(O)c3)c2)[C@@H](OC(=O)c2cc(O)c(O)c(OC(=O)c3cc(O)c(O)c(O)c3)c2)[C@@H]1OC(=O)c1cc(O)c(O)c(OC(=O)c2cc(O)c(O)c(O)c2)c1)c1cc(O)c(O)c(OC(=O)c2cc(O)c(O)c(O)c2)c1` [Tannic Acid], the “Inhibition%(80μM)” value was 88.66% and 87.66%; the inhibition at 80 µM turned out to be 89.6%.
In the case of `CCCCCCCCCCCCCC(=O)O` [Myristic Acid], the “Inhibition%(80μM)” value was 82.11% and 84.30%; the inhibition at 80 µM came out at 85%.
Consider `CC(C)=CCC(O)C1=CC(=O)c2c(O)ccc(O)c2C1=O` (racemic) [(±)-Shikonin], for which the “Inhibition%(80μM)” value is 95.04% and 93.71%; the inhibition at 80 µM is 87.6%.
In the case of `CCCCCCCC/C=C\CCCCCCCCC(=O)O` [10Z-Nonadecenoic acid], the “Inhibition%(80μM)” value was 126.52% and 101.02% and 101.53%.
For the compound `O=C(O)CCc1ccc(O)c(O)c1` [Hydrocaffeic Acid], the “Inhibition%(80μM)” value was 90.29% and 90.08%; the inhibition at 80 µM was 88.3%.
`CC(C)=CCC(OC(=O)C=C(C)C)C1=CC(=O)c2c(O)ccc(O)c2C1=O` (stereo not drawn) [β,β-dimethylacrylshikonin]: the “Inhibition%(80μM)” value was 75.31% and 77.34% and 77.10%.
`C/C=C1/[C@H](O[C@@H]2O[C@H](CO)[C@@H](O)[C@H](O)[C@H]2O)OC=C(C(=O)OC)[C@H]1CC(=O)OCCc1ccc(O)c(O)c1` [Oleuropein]: the “Inhibition%(80μM)” value stood at 97.72% and the inhibition at 80 µM came out at 96.6%.
For `O=c1cc(-c2ccc(O)cc2)oc2cc(O)c(O)c(O)c12` [Scutellarein], the “Inhibition%(80μM)” value is 85.01% and 83.89%; the inhibition at 80 µM came to 84.1%.
For the compound `O=C(/C=C/c1ccc(O)c(O)c1)OC[C@H]1O[C@@H](OCCc2ccc(O)c(O)c2)[C@H](O)[C@@H](O)[C@@H]1O` [Desrhamnosyl Isoacteoside], the “Inhibition%(80μM)” value is 93.35% and 94.40% and 92.55%.
As to `OCCc1ccc(O)c(O)c1` [3,4-Dihydroxyphenylethanol], the “Inhibition%(80μM)” value is 102.33% and 102.25%; the inhibition at 80 µM worked out at 101%.
`CC(C)=CCCC1=CC(=O)c2c(O)ccc(O)c2C1=O` [Deoxyshikonin]: the “Inhibition%(80μM)” value is 88.46% and 84.98%; the inhibition at 80 µM amounted to 82.3%.
On to `O=C(O[C@@H]1Cc2c(O)cc(O)cc2O[C@H]1c1cc(O)c(O)c(O)c1)c1cc(O)c(O)c(O)c1` [(−)–gallocatechin gallate, (-)-Gallocatechin Gallate], for which the “Inhibition%(80μM)” value is 102.08% and 101.74%; the inhibition at 80 µM turned out to be 101%.
Turning to `O=C(O[C@@H]1O[C@@H]2COC(=O)c3cc(O)c(O)c(O)c3-c3c(cc(O)c(O)c3O)C(=O)O[C@H]([C@H]1O)[C@@H]2O)c1cc(O)c(O)c(O)c1` [Corilagin], the “Inhibition%(80μM)” value was 101.84% and 101.22%; the inhibition at 80 µM worked out at 101%.
As to `CC1=C(O)C(=O)C=C2C1=CC=C1[C@@]2(C)CC[C@@]2(C)[C@@H]3C[C@](C)(C(=O)O)CC[C@]3(C)CC[C@]12C` [Celastrol], the “Inhibition%(80μM)” value is 85.83% and 91.32%; the inhibition at 80 µM came out at 89.6%.
Regarding (-)-Epigallocatechin, the “Inhibition%(80μM)” value is 78.95% and 75.28% and 77.55%.
On the same count and under the same terms, the value for Forsythoside B was 92.91% and 95.11% and 93.46%.
With `CCCCCCCCCCCCCCC(=O)O` [Pentadecanoic Acid], the “Inhibition%(80μM)” value was 92.58% and 91.46%; the inhibition at 80 µM was determined as 92.3%.
On to `Oc1cc(O)cc(/C=C/c2c(O)cccc2O)c1` [Gnetol], for which the “Inhibition%(80μM)” value is 81.39% and 81.62%; the inhibition at 80 µM is 81.5%.
Consider `CC(=O)OC(C)(C)CC(=O)O[C@@H](CC=C(C)C)C1=CC(=O)c2c(O)ccc(O)c2C1=O` [3-(Acetyloxy)-3-methylbutanoic acid (1S)-1-(1,4-dihydro-5,8-dihydroxy-1,4-dioxo-2-naphthalenyl)-4-methyl-3-pentenyl ester], for which the “Inhibition%(80μM)” value was 93.12% and 92.58% and 93.44%.
Consider `NCCCN(CCCCNCCCNC(=O)CCc1ccc(O)c(O)c1)C(=O)CCc1ccc(O)c(O)c1` [Kukoamine B], for which the “Inhibition%(80μM)” value was 103.22% and 104.32%; the inhibition at 80 µM came out at 104%.
On to `O=C1O[C@H]2[C@@H]3OC(=O)c4cc(O)c(O)c(O)c4-c4c(cc(O)c(O)c4O)C(=O)OC[C@H]2O[C@@H](OC(=O)c2cc(O)c(O)c(O)c2)[C@@H]3OC(=O)c2cc(O)c(O)c3c2[C@@H]2C1=CC(=O)[C@](O)(O3)C2(O)O` [Geraniin], for which the “Inhibition%(80μM)” value was 70.07% and 71.11%; the inhibition at 80 µM stood at 71.6%.
For `CC(=O)/C=C/c1ccc(O)c(O)c1` [Osmundacetone], the “Inhibition%(80μM)” value was 98.31% and 98.46%; the inhibition at 80 µM was found to be 98.7%.
As for `Oc1cc2c(cc1O)[C@@H]1c3ccc(O)c(O)c3OC[C@]1(O)C2` [hematoxylin, Hematoxylin], the “Inhibition%(80μM)” value is 103.56% and 103.03%; the inhibition at 80 µM was determined as 104%.
Regarding `CCCCC/C=C\C/C=C\C/C=C\C/C=C\CCCC(=O)O` [Arachidonic Acid], the “Inhibition%(80μM)” value was 76.72% and 73.70%; the inhibition at 80 µM came out at 82.2%.
Regarding `O=P(O)(O)O[C@H]1[C@H](OP(=O)(O)O)[C@@H](OP(=O)(O)O)[C@H](OP(=O)(O)O)[C@@H](OP(=O)(O)O)[C@H]1OP(=O)(O)O` [Phytic Acid], the “Inhibition%(80μM)” value is 97.45% and 98.02%; the inhibition at 80 µM stood at 97.6%.
For Tubuloside A, the “Inhibition%(80μM)” value was 87.62% and 90.37% and 86.87%.
For `CCCCCCCC/C=C\CCCCCCCC(=O)O` [Oleic Acid], the “Inhibition%(80μM)” value is 104.37% and 103.27%; the inhibition at 80 µM is 104%.
`O=C1O[C@H]2[C@@H]3OC(=O)c4cc(O)c(O)c(O)c4-c4c(O)c(O)c5oc(=O)c6c(c(O)c(O)c7oc(=O)c4c5c76)-c4c(cc(O)c(O)c4O)C(=O)OC[C@H]3OC(O)[C@@H]2OC(=O)c2cc(O)c(O)c(O)c2-c2c1cc(O)c(O)c2O` (mixture of isomers) [Punicalagin]: the “Inhibition%(80μM)” value was 73.51% and 73.40%; the inhibition at 80 µM was 75%.
On to `O=c1c(O)c(-c2cc(O)c(O)c(O)c2)oc2cc(O)cc(O)c12` [Myricetin], for which the “Inhibition%(80μM)” value was 90.18% and 90.28%; the inhibition at 80 µM came to 90.6%.
For `C[n+]1cc2c3c(ccc2c2ccc4cc5c(cc4c21)OCO5)OCO3` [Sanguinarine chloride], the “Inhibition%(80μM)” value came to 108.15% and the inhibition at 80 µM was determined as 108%.
Turning to `O=c1c(O)c(-c2ccc(O)c(O)c2)oc2cc(O)c(O)c(O)c12` [3,3',4',5,6,7-Hexahydroxyflavone], the “Inhibition%(80μM)” value is 99.40% and 98.98% and 98.10%.
The same measure, in the same setting: the value for `CC(C)=CCC(OC(=O)C=C(C)C)C1=CC(=O)c2c(O)ccc(O)c2C1=O` (stereo not drawn) [(β,β-Dimethylacryl)Shikonin] was 82.39% and 82.91% and 82.80%.
Take `O=C(O)c1ccc2c(c1)C(=O)c1ccccc1C2=O` [Anthraquinone-2-Carboxylic Acid]: the “Inhibition%(80μM)” value was found to be 84.57% and the inhibition at 80 µM came to 85.4%.
As to `CCCCCCCC/C=C\CCCCCCCCCCCC(=O)O` [Erucic Acid], the “Inhibition%(80μM)” value was 99.68% and 100.48%; the inhibition at 80 µM was 101%.
For `CC1=CC(=O)C=C(C)C1=O` [2,6-Dimethylbenzoquinone], the “Inhibition%(80μM)” value was 101.34% and 101.15%; the inhibition at 80 µM was found to be 102%.
In the case of `O=C(O)Cc1ccc(O)c(O)c1` [3,4-Dihydroxyphenylacetic Acid], the “Inhibition%(80μM)” value was 71.59% and 70.57%; the inhibition at 80 µM worked out at 72.4%.
With `O=C(/C=C/c1ccc(O)c(O)c1)OC[C@H]1O[C@@H](OCCc2ccc(O)c(O)c2)[C@H](O)[C@@H](O[C@@H]2O[C@H](CO)[C@@H](O)[C@H](O)[C@H]2O)[C@@H]1O` [Plantainoside D], the “Inhibition%(80μM)” value was 99.79% and 99.90%; the inhibition at 80 µM was 101%.
In the case of Maleimide, the “Inhibition%(80μM)” value was 103.98% and 104.37% and 103.27%.
